Reference: a melting point compilation (Tetko et al.; mined from patent text by program, amines drawn as free bases though some values may be those of a salt)

SMILES	melting point
N=C(N)Nc1nc(-c2ccccc2[N+](=O)[O-])cs1	176 to 178 °C
Cc1sc2c(c1CCN1CCC(c3noc4cc(F)ccc34)CC1)CCN(C(=O)c1ccccc1)C2	192 to 195 °C
CCOC(=O)Cc1cc(F)ccc1-c1ccccc1	60.5 °C
C(=C\c1nc(COc2ccc(CCCn3ccnc3)cn2)co1)/c1ccccc1	120 to 121 °C
COc1cccc2c1S(=O)(=O)NC(C1CCCCC1)N2 (stereo not given)	221 to 223 °C
Oc1ccc(C2(c3ccc(O)c(Cl)c3)CCCCCCCCCCC2)cc1Cl	167 to 169 °C
NC(=O)C(=O)NCCC(F)=C(F)F	190 to 220 °C
COc1ccc(-c2sc(C=NO)c(-c3cccc(OC)c3)c2C)cc1	122 to 141 °C
CC(C)Cn1c(=O)n(C)c(=O)c2c(-c3ccsc3)c(Cc3ccccc3C(F)(F)F)sc21	113 to 114 °C
Cc1ccnc2c1N=C(S(C)(=O)=O)c1cccnc1N2C1CC1	172 to 173 °C
CCc1nc2c(N)nc3cc(OCc4cccc(Cl)n4)ccc3c2s1	229 to 230 °C
CCOC(=O)CS(=O)(=O)Nc1c(C(C)C)cccc1C(C)C	114 to 116 °C
O=C(NCCCCC(NC(=O)OCc1ccccc1)C(=O)NC1OC(C(=O)O)CC1O)OCc1ccccc1 (stereo not given)	86 to 100 °C
O=C(O)CCCCCCCc1ccc(CCNC(=O)c2ccc(Cl)cc2)cc1	145 to 148 °C
CCC(C)OC(=O)N1CCC(c2nc3cc(-c4ccc(-n5cnnn5)cc4F)ccc3o2)CC1 (stereo not given)	118 to 122 °C
N#Cc1ccc(-c2ccc(C=O)cc2)c(OCc2ccccc2)c1	131 to 132 °C
CC1=C(C(=O)OC(C)C)C(c2cccc([N+](=O)[O-])c2)N(C(=O)OCc2ccccc2)C(=O)N1 (stereo not given)	158 to 159 °C
COc1ccc2c(c1OC)C(=O)C(O)=C(C)C2=O	218 °C
CCCC#Cc1cnc(-c2ccc(C(F)(F)F)cc2)nc1	140 °C
O=C(O)C1=Cc2ccccc2NC1	223 to 226 °C

SMILES	melting point
C#Cc1ccc(C(=O)OC)c(O)c1	62 °C
NC(=O)c1ccnc(-c2ccccc2)c1N	163 to 164 °C
CC1=C(C(=O)OCCO)C(c2cccc([N+](=O)[O-])c2)C2=C(CCCS2(=O)=O)N1 (stereo not given)	233 to 235 °C
O=C1c2ccc(N3CCCC3)c3c(Cl)c(Cl)cc(c23)C(=O)N1O	200 to 201 °C
COC(=O)CC1(CN=C=O)CCCCCC1	69 to 72 °C
Cc1nc(CNC=O)ccc1OCc1ccccc1	67 to 68 °C
NC(=O)c1ccccc1-n1nnc2cccnc21	> 340 °C
CCOc1nn(Cc2ccc(OCc3cccnc3)c(OC)c2)cc1CCC(=O)O	124 to 125 °C
CC(C)OC(=O)c1cc2c3ccccc3n(Cc3ccccc3)c2s1	88 to 89 °C
CCn1cc(C(=O)O)c(=O)c2cc(F)c(-n3cccc3)nc21	257 to 259 °C
CCCc1nc2c(N)nc3ccccc3c2n1OCc1ccccc1	164 to 166 °C
CCC(SCC(=O)O)c1cc2c(cc1C)OCO2 (stereo not given)	98 to 99 °C
Oc1ccc(-c2cc3cc(O)cc(CC(F)(F)F)c3o2)cc1	210 to 213 °C
COc1ccc2c(c1)OCC(/C=C/C=C/C=C/C(=O)O)=C2	238 to 240 °C
COc1cc(C(F)(F)F)nn1-c1ccc(NC(=O)c2snnc2C)cc1	159 to 160 °C
CNC(=O)c1nc(SC)n2c1CN=C(c1ccccc1Cl)c1cc(Cl)ccc1-2	224 to 227 °C
c1ccn(Nc2ncnc3c2ncn3-n2cccc2)c1	230 to 232 °C
COc1cc(Br)c(OC)c(/C=C/C(=O)/C=C/c2cc(OC)cc(Br)c2OC)c1	122 to 125 °C
CN1CCN(c2ccc(C=CC(=O)N3CCc4c([nH]c5ccccc45)C3c3ccc4c(c3)CCO4)cn2)CC1 (stereo not given)	> 260 °C
COc1cc2c(cc1OC)CN(CCCc1cccc(NC(=O)c3cccc4c(=O)c5cccc(OC)c5[nH]c34)c1)CC2	138 to 140 °C
